Consider 28 compounds from patent publication US11365199B2, “Pyrazole compounds as modulators of FSHR and uses thereof” (Merck Patent GmbH, priority 2013, dated 2022).

This assay deals with T1, FSHR (Homo sapiens, UniProt P23945).
T1 construct: expressed in transfected cells; host or cells: CHO (Cho-FSHR-LUC-1-1-43)
T1 sequence (P23945 18-695): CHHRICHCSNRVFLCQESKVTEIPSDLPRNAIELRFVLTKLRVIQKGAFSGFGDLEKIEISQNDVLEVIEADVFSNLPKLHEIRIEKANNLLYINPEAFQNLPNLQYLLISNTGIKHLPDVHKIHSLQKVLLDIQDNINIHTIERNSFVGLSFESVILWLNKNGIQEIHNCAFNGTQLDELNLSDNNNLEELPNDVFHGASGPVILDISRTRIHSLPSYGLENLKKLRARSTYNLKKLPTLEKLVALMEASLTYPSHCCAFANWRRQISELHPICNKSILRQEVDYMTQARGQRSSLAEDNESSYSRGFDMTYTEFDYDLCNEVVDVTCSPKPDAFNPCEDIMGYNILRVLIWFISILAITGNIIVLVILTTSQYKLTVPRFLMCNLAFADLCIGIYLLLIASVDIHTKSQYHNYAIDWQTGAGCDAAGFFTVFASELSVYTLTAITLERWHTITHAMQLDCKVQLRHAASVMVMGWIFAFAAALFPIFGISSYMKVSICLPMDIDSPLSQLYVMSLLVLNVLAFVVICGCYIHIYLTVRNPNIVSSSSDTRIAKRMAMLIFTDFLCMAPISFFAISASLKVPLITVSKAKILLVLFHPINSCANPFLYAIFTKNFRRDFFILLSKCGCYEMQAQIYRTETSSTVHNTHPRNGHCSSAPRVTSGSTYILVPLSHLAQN
Kind of assay: EC50 of cyclic AMP production in CHO FSHR cells + EC20 FSH (Assay A). The assay is classed as cell-based. The following applies: CHO FSHR cells + EC20 FSH, cAMP HTRF; read-out: Assay A: EC50 of cyclic AMP production. An outline of the steps:
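cAMP HTRF read-out (665 nm/620 nm ratio) after 1 h at 37° C of Cho-FSHR-LUC cells treated with serially diluted test compound plus EC20 FSH ([…]) and IBMX (final 200 μM). Responses given as percent of maximal FSH-standard effect.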

As for `COc1cc2c(cc1-c1cnn(C(C)C)c1)-c1c(c(C(=O)N3CCOCC3(C)C)nn1-c1ccsc1)CO2` [Compound 191, (3,3-Dimethyl-morpholin-4-yl)-[8-(1-isopropyl-1H-pyrazol-4-yl)-7-methoxy-1-thiophen-3-yl-1,4-dihydro-chromeno[4,3-c]pyrazol-3-yl]-methanone], the EC50 is below 0.1 µM.

For `COc1cc2c(cc1-c1ccn(C)c1)-c1c(c(C(=O)NC(C)(CO)CO)nn1-c1ccsc1)CO2` [Compound 179, 7-methoxy-8-(1-methyl-1H-pyrrol-3-yl)-1-thiophen-3-yl-1,4-dihydro-chromeno[4,3-c]pyrazole-3-carboxylic acid (2-hydroxy-1-hydroxymethyl-1-methyl-ethyl)-amide], the EC50 was in the range of 0.1 to 1 µM.

On to `COc1cc2c(cc1C=C(C)C)-c1c(c(C(=O)N3CCOCC3)nn1-c1ccsc1)CO2` [Compound 117, [7-Methoxy-8-(2-methyl-propenyl)-1-thiophen-3-yl-1,4-dihydro-chromeno[4,3-c]pyrazol-3-yl]-morpholin-4-yl-methanone], for which the EC50 was 0.1 to 1 µM.

For `COc1cc2c(cc1C=C(C)C)-c1c(c(C(=O)N3CCC[C@H](C(=O)N4CCC4)CC3)nn1-c1ccsc1)CO2` [Compound 46, [(S)-4-(Azetidine-1-carbonyl)-azepan-1-yl]-[7-methoxy-8-(2-methyl-propenyl)-1-thiophen-3-yl-1,4-dihydro-chromeno[4,3-c]pyrazol-3-yl]-methanone], the EC50 lay within 1 to 5 µM.

In the case of `[2H]C([2H])([2H])OC1CCN(C(=O)c2nn(-c3ccsc3)c3c2COc2cc(OC)c(C=C(C)C)cc2-3)C1` (stereo not shown) [Compound 49], the EC50 was in the range of 0.1 to 1 µM.

In the case of `COc1cc2c(cc1C=C(C)C)-c1c(c(C(=O)N(C)C(C)(C)C)nn1-c1cccs1)CO2` [Compound 90, 7-Methoxy-8-(2-methyl-propenyl)-1-thiophen-2-yl-1,4-dihydro-chromeno[4,3-c]pyrazole-3-carboxylic Acid tert-butyl-methyl-amide], the EC50 was below 0.1 µM.

`[2H]C([2H])([2H])N(CCN(C(=O)c1nn(-c2ccsc2)c2c1COc1cc(OC)c(C=C(C)C)cc1-2)C([2H])([2H])[2H])C(C)=O` [Compound 61]: the EC50 was below 0.1 µM.

Turning to `COc1cc2c(cc1OC(C)C)-c1c(c(C(=O)N(C)CCN(C)C(=O)C3CCC3)nn1-c1ccsc1)CO2` [Compound 29], the EC50 was below 0.1 µM.

Consider `CCn1nc(C)c(-c2cc3c(cc2OC)OCc2c(C(=O)N4CCOCC4(C)C)nn(-c4ccsc4)c2-3)c1C` [Compound 204, (3,3-Dimethyl-morpholin-4-yl)-[8-(1-ethyl-3,5-dimethyl-1H-pyrazol-4-yl)-7-methoxy-1-thiophen-3-yl-1,4-dihydro-chromeno[4,3-c]pyrazol-3-yl]-methanone], for which the EC50 is below 0.1 µM.

On to `CCCn1nc(C)cc1-c1cc2c(cc1OC)OCc1c(C(=O)N3CCOCC3(C)C)nn(-c3ccsc3)c1-2` [Compound 212, (3,3-Dimethyl-morpholin-4-yl)-[7-methoxy-8-(5-methyl-2-propyl-2H-pyrazol-3-yl)-1-thiophen-3-yl-1,4-dihydro-chromeno[4,3-c]pyrazol-3-yl]-methanone], for which the EC50 is below 0.1 µM.

`COc1cc2c(cc1-c1ccn(C)c1)-c1c(c(C(=O)O[C@H]3CC[C@H](N)C3)nn1-c1ccsc1)CO2` [Compound 181, 7-Methoxy-8-(1-methyl-1H-pyrrol-3-yl)-1-thiophen-3-yl-1,4-dihydro-chromeno[4,3-c]pyrazole-3-carboxylic Acid (1S,3S)-3-amino-cyclopentyl Ester]: the EC50 was below 0.1 µM.

With `COc1cc2c(cc1C=C(C)C)-c1c(c(C(=O)N3CCC[C@@H](C(=O)N4CCC4)CC3)nn1-c1ccsc1)CO2` [Compound 45, [(R)-4-(Azetidine-1-carbonyl)-azepan-1-yl]-[7-methoxy-8-(2-methyl-propenyl)-1-thiophen-3-yl-1,4-dihydro-chromeno[4,3-c]pyrazol-3-yl]-methanone], the EC50 was 0.1 to 1 µM.

On to `COc1cc2c(cc1-c1ccn(C)n1)-c1c(c(C(=O)N3CCOCC3C(F)(F)F)nn1-c1ccsc1)CO2` (stereo not shown) [Compound 144, [7-Methoxy-8-(1-methyl-1H-pyrazol-3-yl)-1-thiophen-3-yl-1,4-dihydro-chromeno[4,3-c]pyrazol-3-yl]-(3-trifluoromethyl-morpholin-4-yl)-methanone], for which the EC50 is below 0.1 µM.

Turning to `COc1cc2c(cc1C=C(C)C)-c1c(c(C(=O)N(C)C(C)(C)C)nn1-c1nccs1)CO2` [Compound 89, 7-Methoxy-8-(2-methyl-propenyl)-1-thiazol-2-yl-1,4-dihydro-chromeno[4,3-c]pyrazole-3-carboxylic Acid tert-butyl-methyl-amide], the EC50 is below 0.1 µM.

In the case of `COc1cc2c(cc1C=C(C)C)-c1c(c(C(=O)N(C)CCCN3CCOC3=O)nn1-c1ccsc1)CO2` [Compound 33], the concentration giving a half-maximal response (EC50) fell in the range of 0.1 to 1 µM.

For the compound `COc1cc2c(cc1-c1c[nH]nc1C)-c1c(c(C(=O)N(C)C(C)(C)C)nn1-c1ccsc1)CO2` [Compound 71, 7-Methoxy-8-(3-methyl-1H-pyrazol-4-yl)-1-thiophen-3-yl-1,4-dihydro-chromeno[4,3-c]pyrazole-3-carboxylic acid tert-butyl-methyl-amide], the EC50 was below 0.1 µM.

Turning to `COc1cc2c(cc1CC(C)C)-c1c(c(C(=O)N3CCOCC3(C)C)nn1-c1ccsc1)CO2` [Compound 77, (3,3-Dimethyl-morpholin-4-yl)-(8-isobutyl-7-methoxy-1-thiophen-3-yl-1,4-dihydro-chromeno[4,3-c]pyrazol-3-yl)-methanone], the EC50 is below 0.1 µM.

Turning to `[2H]C([2H])([2H])NC(=O)[C@H]1CCC[C@@H](N(C(=O)c2nn(-c3ccsc3)c3c2COc2cc(OC)c(C=C(C)C)cc2-3)C([2H])([2H])[2H])C1` [Compound 107], the EC50 is above 5 µM.

Take `[2H]C([2H])([2H])N(CCNC(=O)c1nn(-c2ccsc2)c2c1COc1cc(OC)c(C=C(C)C)cc1-2)C(C)=O` [Compound 60]: the EC50 fell in the range of 0.1 to 1 µM.

For the compound `COc1cc2c(cc1C=C(C)C)-c1c(c(C(=O)N3CCCC(N)CC3)nn1-c1ccsc1)CO2` (stereo not shown) [Compound 36, (4-Amino-azepan-1-yl)-[7-methoxy-8-(2-methyl-propenyl)-1-thiophen-3-yl-1,4-dihydro-chromeno[4,3-c]pyrazol-3-yl]-methanone], the EC50 lay within 0.1 to 1 µM.

`COc1cc2c(cc1-c1c[nH]nc1C)-c1c(c(C(=O)NC3CC(O)C3)nn1-c1ccsc1)CO2` (stereo not shown) [Compound 138, 7-Methoxy-8-(3-methyl-1H-pyrazol-4-yl)-1-thiophen-3-yl-1,4-dihydro-chromeno[4,3-c]pyrazole-3-carboxylic acid (3-hydroxy-cyclobutyl)-amide]: the concentration giving a half-maximal response (EC50) is above 5 µM.

Take `[2H]C([2H])([2H])N(CCN1CCOC1=O)C(=O)c1nn(-c2ccsc2)c2c1COc1cc(OC)c(C=C(C)C)cc1-2` [Compound 56]: the EC50 is below 0.1 µM.

As for `[2H]C([2H])([2H])N(C(=O)c1nn(-c2ccsc2)c2c1COc1cc(OC)c(S(=O)(=O)C(C)C)cc1-2)C1(C)COC1` [Compound 199], the EC50 was below 0.1 µM.

As for `COc1cc2c(cc1-c1ccn(C)n1)-c1c(c(C(=O)N(C)C3COC3)nn1-c1ccsc1)CO2` [Compound 104, 7-Methoxy-8-(1-methyl-1H-pyrazol-3-yl)-1-thiophen-3-yl-1,4-dihydro-chromeno[4,3-c]pyrazole-3-carboxylic acid methyl-oxetan-3-yl-amide], the EC50 was 1 to 5 µM.

With `COc1cc2c(cc1-c1cnn(CC(C)C)c1)-c1c(c(C(=O)N3CCOCC3(C)C)nn1-c1ccsc1)CO2` [Compound 192, (3,3-Dimethyl-morpholin-4-yl)-[8-(1-isobutyl-1H-pyrazol-4-yl)-7-methoxy-1-thiophen-3-yl-1,4-dihydro-chromeno[4,3-c]pyrazol-3-yl]-methanone], the EC50 is below 0.1 µM.

As for `COc1cc2c(cc1CC(C)C)-c1c(c(C(=O)NC3(CO)COC3)nn1-c1ccsc1)CO2` [Compound 141, 8-Isobutyl-7-methoxy-1-thiophen-3-yl-1,4-dihydro-chromeno[4,3-c]pyrazole-3-carboxylic acid (3-hydroxymethyl-oxetan-3-yl)-amide], the EC50 fell in the range of 1 to 5 µM.

Take `COc1cc2c(cc1-c1ccn(C)c1)-c1c(c(C(=O)NCC3(O)COC3)nn1-c1ccsc1)CO2` [Compound 164, 7-Methoxy-8-(1-methyl-1H-pyrrol-3-yl)-1-thiophen-3-yl-1,4-dihydro-chromeno[4,3-c]pyrazole-3-carboxylic acid (3-hydroxy-oxetan-3-ylmethyl)-amide]: the EC50 is 1 to 5 µM.

Consider `COc1cc2c(cc1-c1ccn(C)c1)-c1c(c(C(=O)N3CCCC3(C)CO)nn1-c1ccsc1)CO2` (stereo not shown) [Compound 176, (2-Hydroxymethyl-2-methyl-pyrrolidin-1-yl)-[7-methoxy-8-(1-methyl-1H-pyrrol-3-yl)-1-thiophen-3-yl-1,4-dihydro-chromeno[4,3-c]pyrazol-3-yl]-methanone], for which the EC50 was below 0.1 µM.
